Results on two substances are retold here after US8394641B2, “Method of hydrolyzing an enzymatic substrate” (Advanced Liquid Logic Inc., priority 2009, dated 2013).

A short description of this data set: 4-MU partitioning assay (forward and backward extraction) with cyclodextrins. Conditions: for aqueous containment of 4-MU: independent of pH. The format is physicochemical. How it is done: The assay format includes forward transfer partitioning (forward extraction; FE) of 4-MU from an aqueous phase to an oil phase and backward transfer partitioning (backward extraction; BE) of 4-MU from an oil phase to an aqueous phase. The assay is performed in 96-well microtiter substrates; clear 96-well substrates (e.g., Costar 3631) for evaluation of forward transfer partitioning with bottom probe fluorescence detection and solid black 96-well substrates (e.g., Costar 3915) for evaluation of backward transfer partitioning with top probe fluorescence detection. A BioTek Synergy HT instrument with 3 mm top probe and 5 mm bottom probe, may, for example, be used for fluorescence measurements. In one example, parameters that may be varied in the assay for evaluation of cyclodextrins in aqueous containment of 4-MU include, but are not limited to, ionic strength of the aqueous phase solution, pH of the aqueous phase solution (e.g., pH 2 or pH 5), and the molar ratio of cyclodextrins to 4-MU.
An example of an assay format used for testing the effect of cyclodextrins on contamination through 4-MU partitioning includes, but is not limited to, the following steps: Pipette an aliquot (20 μL) of an aqueous phase solution (e.g., at pH 2, pH5 or pH 10.5) containing a surfactant, such as 0.01% Tween® 20 in a well of a 96-well clear microtiter plate. […] Measure the fluorescence of each well using a bottom probe at gains 40, 45, and 50. […] Remove the aluminum foil and measure the fluorescence of each well using a top probe at gains 50, 60, 70, and 80. […]
Each well of the second microtiter plate (i.e., a solid black microtiter plate) contains 50 μL of an aqueous solution (200 mM NaHCO3) at pH 10.5. […] For fluorescence calibration, an aqueous solution containing 4-MU (0, 0.01, 0.1, or 1 μM) was added to the corresponding “empty” wells of Table 5 and overlaid with a 50 μL aliquot of fresh oil.
FIGS. 17A and 17B show data tables 1700 and 1750, respectively, of fluorescence readings for forward transfer and backward transfer, respectively, of the 4-MU partitioning assay of Tables 5 and 6. […]

Take hydroxypropyl-β-cyclodextrin: the “aqueous containment of 4-MU” value was “effective”.
As to methyl-β-cyclodextrin, the “aqueous containment of 4-MU” value is “effective”. Under “molar ratio of Me-bCD to 4-MU 200:1, FIG. 16D”, the “contamination signal (back extraction)” value is listed as “lowest contamination signal”.
